Experiment [1] deals with T1, Full-length phosphorylated PDK1 (Homo sapiens, UniProt O15530).
T1 sequence (O15530 1-556): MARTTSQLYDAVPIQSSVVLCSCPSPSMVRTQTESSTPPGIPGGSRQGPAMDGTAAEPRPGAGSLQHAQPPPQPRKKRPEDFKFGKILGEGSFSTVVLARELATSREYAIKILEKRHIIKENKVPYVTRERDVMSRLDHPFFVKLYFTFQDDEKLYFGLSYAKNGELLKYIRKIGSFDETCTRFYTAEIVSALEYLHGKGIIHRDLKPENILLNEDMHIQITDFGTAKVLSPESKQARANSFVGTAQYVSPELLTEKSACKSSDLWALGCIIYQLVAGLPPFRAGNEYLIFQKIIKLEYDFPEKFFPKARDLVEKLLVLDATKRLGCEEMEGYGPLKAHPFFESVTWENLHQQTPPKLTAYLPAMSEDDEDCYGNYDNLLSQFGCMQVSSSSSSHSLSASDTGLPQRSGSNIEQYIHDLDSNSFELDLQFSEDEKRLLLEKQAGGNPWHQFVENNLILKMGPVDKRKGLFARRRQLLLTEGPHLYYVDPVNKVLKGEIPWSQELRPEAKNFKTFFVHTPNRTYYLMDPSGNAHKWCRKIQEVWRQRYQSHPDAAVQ
Put plainly: Fluorescence polarization PIF-tide binding assay. The following applies: PDK1 saturating amounts of compound, FIG. 13C.

In a further experiment the test system is JJN3. Put plainly: MTS cell proliferation assay, JJN3. Type of experiment: cell-based. The following applies: Homo sapiens, JJN-3; JJN3, 72 hr. How it is done:
(§1) Cell proliferation was measured using the CellTiter 96 Aqueous Non-Radioactive Cell Proliferation Assay (Promega). The CellTiter 96® AQueous Assay is composed of solutions of a tetrazolium compound [3-(4,5-dimethylthiazol-2-yl)-5-(3-carboxymethoxyphenyl)-2-(4-sulfophenyl)-2H-tetrazolium, inner salt; MTS] and an electron coupling reagent (phenazine methosulfate) PMS. MTS is bioreduced by cells into a formazan product that is soluble in tissue culture medium. The absorbance of the formazan product at 490 nm can be measured directly from assay plates without additional processing. The quantity of formazan product as measured by the amount of 490 nm absorbance is directly proportional to the number of living cells in culture. Cells were seeded into 96-well or 384-well clear plates in a volume of 200 μL (96-well) or 50 μL (384-well) at optimized densities ranging from 1,000 to 40,000 cells per well for 96-well plates or 1,200 to 25,000 cells per well for 384-well plates depending on cell-line. After 4-6 hr recovery, serially diluted compounds in DMSO were added to the cells using (0.1% v/v final DMSO concentration). Cells were then grown at 37° C. in a humidified incubator with 5% CO2 for 72 hr. A 20:1 [3-(4,5-dimethylthiazol-2-yl)-5-(3-carboxymethoxyphenyl)-2-(4-sulfophenyl)-2H-tetrazolium](MTS):phenazine methosulfate (PMS) solution in DPBS was made immediately before use, added to each well, and cells were incubated for 1.5 hr at 37° C. The absorbance at 490 nm was then measured using a platereader. Absorbance values were normalized as percent of control (cells incubated in the presence of 0.1% v/v DMSO). Sigmoidal dose-response curves were plotted using log(inhibitor) vs. response—Variable slope (four parameters) model with a top value constrained to 100% (GraphPad Prism version 6.00 for Windows, GraphPad Software, La Jolla California USA). […] Curves for compounds that reached a plateau were matched exactly to the measurement points. […]

In a further experiment the test system is CMK. Put plainly: MTS cell proliferation assay, CMK. Format: cell-based. The following applies: Homo sapiens, 72 hr. How it is done: as §1
The subject of the next experiment is SU-DHL-6. The experiment is described as follows: MTS cell proliferation assay, SU-DHL-6. Format: cell-based. The following applies: Homo sapiens; SU-DHL-6, 72 hr. How it is done:
as §1

Another experiment deals with MOLM-16. Put plainly: MTS cell proliferation assay, MOLM-16. Type of experiment: cell-based. The following applies: Homo sapiens, MOLM16; MOLM-16, 72 hr. The procedure: as §1
Another experiment deals with KG1. Put plainly: MTS cell proliferation assay, KG1. Type of experiment: cell-based. The settings on record: Homo sapiens, KG-1; KG1, 72 hr. The procedure:
as §1

A further experiment relates to U-2932. Put plainly: MTS cell proliferation assay, U-2932. Format: cell-based. The following applies: Homo sapiens, U2932; U-2932, 72 hr. How it is done:
(§2) Cell proliferation was measured using the CellTiter 96 Aqueous Non-Radioactive Cell Proliferation Assay (Promega). The CellTiter 96® AQueous Assay is composed of solutions of a tetrazolium compound [3-(4,5-dimethylthiazol-2-yl)-5-(3-carboxymethoxyphenyl)-2-(4-sulfophenyl)-2H-tetrazolium, inner salt; MTS] and an electron coupling reagent (phenazine methosulfate) PMS. MTS is bioreduced by cells into a formazan product that is soluble in tissue culture medium. The absorbance of the formazan product at 490 nm can be measured directly from assay plates without additional processing. The quantity of formazan product as measured by the amount of 490 nm absorbance is directly proportional to the number of living cells in culture. Cells were seeded into 96-well or 384-well clear plates in a volume of 200 μL (96-well) or 50 μL (384-well) at optimized densities ranging from 1,000 to 40,000 cells per well for 96-well plates or 1,200 to 25,000 cells per well for 384-well plates depending on cell-line. After 4-6 hr recovery, serially diluted compounds in DMSO were added to the cells using (0.1% v/v final DMSO concentration). Cells were then grown at 37° C. in a humidified incubator with 5% CO2 for 72 hr. A 20:1 [3-(4,5-dimethylthiazol-2-yl)-5-(3-carboxymethoxyphenyl)-2-(4-sulfophenyl)-2H-tetrazolium](MTS):phenazine methosulfate (PMS) solution in DPBS was made immediately before use, added to each well, and cells were incubated for 1.5 hr at 37° C. The absorbance at 490 nm was then measured using a platereader. Absorbance values were normalized as percent of control (cells incubated in the presence of 0.1% v/v DMSO). Sigmoidal dose-response curves were plotted using log(inhibitor) vs. response—Variable slope (four parameters) model with a top value constrained to 100% (GraphPad Prism version 6.00 for Windows, GraphPad Software, La Jolla California USA). […] Curves for compounds that reached a plateau were matched exactly to the measurement points. […] To determine potential of compounds of the invention to affect viability of hematological cancers, cell lines representing various tumor types were selected and tested. Human cell lines tested were: MOLM-13 (acute myeloid leukemia (AML)), MV4-11 (AML), U-2932 (ABC-diffuse large B cell lymphoma), U-937 (histiocytic lymphoma), U-266 (multiple myeloma), RPMI-8226 (multiple myeloma), CMK (megakaryoblastic cell line), SU-DHL-4 (GCB-diffuse large B cell lymphoma), KG1 (AML), Mec-1 (chronic B-cell leukemia), MOLM-16 (AML), Jeko (B-cell lymphoma), WSU-DLCL2 (B-cell lymphoma), JJN3 (plasma cell leukemia), SU-DHL-6 (GCB-diffuse large B cell lymphoma), and Z-138 (mantle cell lymphoma). In addition, two murine cell lines were tested: A20 […].

A further experiment deals with RPMI-8226. Put plainly: MTS cell proliferation assay, RPMI-8226. Format: cell-based. The settings on record: Homo sapiens; RPMI-8226, 72 hr. The procedure: as §2
Experiment [2] deals with hematologic tumor cell lines. The experiment is described as follows: MTS cell proliferation assay, panel of hematologic cancer cell lines. Type of experiment: cell-based. The settings on record: range against the various cell lines of Table 1; read-out: inhibition of cell proliferation EC50. The procedure: as §2
The next experiment relates to U-937. The experiment is described as follows: MTS cell proliferation assay, U-937. The following applies: Homo sapiens; U-937, 72 hr. Format: cell-based. The procedure: as §1
The test system of the next experiment is WSU-DLCL2. Put plainly: MTS cell proliferation assay, WSU-DLCL2. Type of experiment: cell-based. The settings on record: Homo sapiens, WSUDLCL2; WSU-DLCL2, 72 hr. How it is done: as §1
The next experiment relates to SU-DHL-4. The experiment is described as follows: MTS cell proliferation assay, SU-DHL-4. Type of experiment: cell-based. The following applies: Homo sapiens; SU-DHL-4, 72 hr. The procedure:
as §1

A further experiment has as its system Mec-1. The experiment is described as follows: MTS cell proliferation assay, Mec-1. Type of experiment: cell-based. The settings on record: Homo sapiens, MEC1; Mec-1, 72 hr. The procedure: as §1
The test system of a further experiment is U-266. Put plainly: MTS cell proliferation assay, U-266. Type of experiment: cell-based. The following applies: Homo sapiens; U-266, 72 hr. How it is done: as §1
For the next experiment, the system named is Z-138. The experiment is described as follows: MTS cell proliferation assay, Z-138. Format: cell-based. The settings on record: Homo sapiens; Z-138, 72 hr. How it is done: as §1
The next experiment deals with Molm-13. Put plainly: MTS cell proliferation assay, Molm-13. Format: cell-based. The following applies: Homo sapiens; Molm-13, 72 hr. The procedure: as §2
The next experiment deals with MV4-11. The experiment is described as follows: MTS cell proliferation assay, MV4-11. Format: cell-based, human. The settings on record: Homo sapiens; MV4-11, 72 hr; read-out: MTS proliferation assay. The procedure:
Cell proliferation was measured using the CellTiter 96 Aqueous Non-Radioactive Cell Proliferation Assay (Promega). […] MTS is bioreduced by cells into a formazan product that is soluble in tissue culture medium. The absorbance of the formazan product at 490 nm can be measured directly from assay plates without additional processing. The quantity of formazan product as measured by the amount of 490 nm absorbance is directly proportional to the number of living cells in culture. Cells were seeded into 96-well or 384-well clear plates in a volume of 200 μL (96-well) or 50 μL (384-well) at optimized densities ranging from 1,000 to 40,000 cells per well for 96-well plates or 1,200 to 25,000 cells per well for 384-well plates depending on cell-line. After 4-6 hr recovery, serially diluted compounds in DMSO were added to the cells using (0.1% v/v final DMSO concentration). Cells were then grown at 37° C. in a humidified incubator with 5% CO2 for 72 hr. A 20:1 [3-(4,5-dimethylthiazol-2-yl)-5-(3-carboxymethoxyphenyl)-2-(4-sulfophenyl)-2H-tetrazolium](MTS):phenazine methosulfate (PMS) solution in DPBS was made immediately before use, added to each well, and cells were incubated for 1.5 hr at 37° C. The absorbance at 490 nm was then measured using a platereader. Absorbance values were normalized as percent of control (cells incubated in the presence of 0.1% v/v DMSO). Sigmoidal dose-response curves were plotted using log(inhibitor) vs. response—Variable slope (four parameters) model with a top value constrained to 100% (GraphPad Prism version 6.00 for Windows, GraphPad Software, La Jolla California USA). […] To determine potential of compounds of the invention to affect viability of hematological cancers, cell lines representing various tumor types were selected and tested. […] In addition, two murine cell lines were tested: A20 […].

In another experiment the test system is Jeko. The experiment is described as follows: MTS cell proliferation assay, Jeko. Type of experiment: cell-based. The settings on record: Homo sapiens, 72 hr. The procedure: as §2

As for `C[C@H](NC(=O)c1nc(C#N)cnc1NCc1ccc(-c2cnc3[nH]nc(N)c3c2)cc1)c1ccc(F)c(F)c1` [Compound 3, 3-[4-(3-Amino-1H-pyrazolo[3,4-b]pyridin-5-yl)-benzylamino]-6-cyano-pyrazine-2-carboxylic acid [1-(3,4-difluoro-phenyl)-ethyl]-amide], in experiment [1], the “PIF-tide binding to PDK1 (fluorescence polarization, words)” value was “significant inhibition of PIF-tide binding”. The EC50 in the experiment on JJN3 was 853 nM; in the experiment on CMK, 278 nM; in the experiment with SU-DHL-6, 458 nM; with MOLM-16, 291 nM; in the experiment on KG1, 193 nM; with U-2932, 115 nM. The EC50 in the experiment with RPMI-8226 was 201 nM; in experiment [2], 3 to 853 nM; in the experiment on U-937, 111 nM; with WSU-DLCL2, 474 nM; with SU-DHL-4 it was 411 nM; in the experiment with Mec-1, 403 nM. Besides, the EC50 came to 145 nM in the experiment with U-266; 754 nM with Z-138; 5 nM in the experiment on Molm-13; 12 nM with MV4-11; 249 nM in the experiment on Jeko.

For the origin of these results see patent US20240207258A1, “HETEROCYCLIC PDK1 INHIBITORS FOR USE TO TREAT CANCER” (Viracta Therapeutics, Inc., priority 2015, published 2024).
